Where only a bound is given, the exact number is not on record here.

For nine compounds, inhibition and IC50 results are on record in ChEMBL document CHEMBL1142831, “Identification of a potent non-hydroxamate histone deacetylase inhibitor by mechanism-based drug design” (Bioorg Med Chem Lett, 2005).

The target of experiment [1] is Histone deacetylase (Homo sapiens) (UniProt Q13547+O15379+Q9UBN7+Q92769+Q9UQL6+Q8WUI4+Q9BY41+Q96DB2+P56524+Q9UKV0+Q969S8). The settings on record: HeLa, at 100 µM.
Description: Percentage inhibition against histone deacetylase of HeLa cells at 100 uM
The target of experiment [2] is Histone deacetylase. Description: Inhibitory concentration against histone deacetylase of HeLa cells. The format is cell-based, Homo sapiens.

On to `CS(=O)(=O)CCCCCCC(=O)Nc1ccccc1`, for which the inhibition in experiment [1] turned out to be 33%. Also, the half-inhibitory concentration (IC50) in experiment [2] came to 230 µM.

Turning to `NCC(=O)NCCCCCC(=O)Nc1ccccc1`, in experiment [2], the concentration for half-maximal inhibition (IC50) was more than 100 µM.

Regarding `O=C(CS)NCCCCCC(=O)Nc1ccccc1`, the inhibition in experiment [1] was 99%.

In turn, `CS(=O)(=O)NCCCCCC(=O)Nc1ccccc1` yielded an inhibition in experiment [1] of 10%. This compound also returned an IC50 in experiment [2] of 7500 µM.

Turning to `O=C(CS)NCCCCCCC(=O)Nc1ccccc1`, the inhibition in experiment [1] was 96%. Besides, the IC50 in experiment [2] is 3 µM.

As for `O=C(CCS)NCCCCCC(=O)Nc1ccccc1`, in experiment [1], the inhibition is 78%. This compound also gave an IC50 in experiment [2] of 24 µM.

`O=C(CO)NCCCCCC(=O)Nc1ccccc1` gave a half-inhibitory concentration (IC50) in experiment [2] of more than 100 µM.

In the case of `O=C(CS)NCCCCC(=O)Nc1ccccc1`, in experiment [1], the inhibition turned out to be 88%. In experiment [2], the IC50 came out at 11 µM.

In experiment [1], `CC(=O)SCC(=O)NCCCCCC(=O)Nc1ccccc1` registered an inhibition of 72%. In experiment [2], this compound yielded an IC50 of 22 µM.

Broadly, the inhibition is how much of the control response was suppressed. Read a high inhibition as a strong effect. The term IC50 denotes the point on the concentration scale where inhibition reaches its midpoint. High values mean weaker potency, low ones greater potency.
